We go through two compounds from publication PMC4188605, “Biochemical and Pharmacological Characterization of the Human Lymphocyte Antigen B-Associated Transcript 5 (BAT5/ABHD16A)” (PLoS ONE, 2014).

Where “and” joins values, the source holds several entries; their conditions need not be identical. Identical values can stand only once.

For assay [1], the target named is T1, hABHD6 (Homo sapiens, UniProt Q9BV23).
T1 construct: expressed in transfected cells; host or cells: HEK293
T1 sequence (Q9BV23 1-337): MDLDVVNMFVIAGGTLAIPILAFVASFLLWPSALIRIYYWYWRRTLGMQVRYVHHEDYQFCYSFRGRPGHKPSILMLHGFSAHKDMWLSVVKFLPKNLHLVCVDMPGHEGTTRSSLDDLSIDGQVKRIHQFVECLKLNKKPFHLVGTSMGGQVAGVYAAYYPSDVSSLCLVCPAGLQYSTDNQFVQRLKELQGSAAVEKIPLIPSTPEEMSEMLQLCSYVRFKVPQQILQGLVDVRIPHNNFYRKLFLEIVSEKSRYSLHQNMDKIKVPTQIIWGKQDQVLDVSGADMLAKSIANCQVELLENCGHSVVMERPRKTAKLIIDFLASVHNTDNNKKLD
Set-up: method as in PMID 22969151. The settings on record: 2-AG as the substrate; range given jointly for hABHD6, hABHD12 and hMAGL; cited from earlier work.

Assay [2] concerns the target T2, hMAGL (Homo sapiens, UniProt Q99685).
T2 construct: expressed in transfected cells; host or cells: HEK
T2 sequence (Q99685 1-303): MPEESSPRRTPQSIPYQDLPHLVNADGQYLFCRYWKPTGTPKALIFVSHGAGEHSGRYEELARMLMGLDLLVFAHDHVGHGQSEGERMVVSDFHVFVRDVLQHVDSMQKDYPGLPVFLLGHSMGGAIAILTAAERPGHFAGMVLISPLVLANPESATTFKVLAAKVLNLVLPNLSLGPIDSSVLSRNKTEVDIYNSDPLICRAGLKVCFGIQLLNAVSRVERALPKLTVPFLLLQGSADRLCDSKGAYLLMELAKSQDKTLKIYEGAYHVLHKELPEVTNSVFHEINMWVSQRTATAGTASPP
The settings on record: 2-AG as the substrate; range given jointly for hABHD6, hABHD12 and hMAGL; cited from earlier work.

Assay [3] concerns the target T3, hABHD12 (Homo sapiens, UniProt Q8N2K0).
T3 construct: expressed in transfected cells; host or cells: HEK293
T3 sequence (Q8N2K0 1-398): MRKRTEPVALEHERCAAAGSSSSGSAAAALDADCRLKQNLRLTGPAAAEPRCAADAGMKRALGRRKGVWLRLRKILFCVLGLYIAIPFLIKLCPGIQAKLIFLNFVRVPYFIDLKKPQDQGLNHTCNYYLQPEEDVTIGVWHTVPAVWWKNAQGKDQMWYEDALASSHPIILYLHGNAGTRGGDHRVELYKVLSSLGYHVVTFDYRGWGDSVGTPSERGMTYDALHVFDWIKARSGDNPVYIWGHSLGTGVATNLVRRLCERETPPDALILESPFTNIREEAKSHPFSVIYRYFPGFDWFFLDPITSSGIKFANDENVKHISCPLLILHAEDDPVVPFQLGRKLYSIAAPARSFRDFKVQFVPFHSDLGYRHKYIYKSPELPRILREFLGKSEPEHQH
Set-up: method as in PMID 22969151. The settings on record: 2-AG as the substrate; range given jointly for hABHD6, hABHD12 and hMAGL; cited from earlier work.

Assay [4] addresses T1, hABHD6. The assay is described as follows: Hydrolase activity assay, hABHD6-HEK lysates. Format: biochemical. The note with it: hABHD6-HEK lysates; read-out: IC50.
The target in assay [5] is T2, hMAGL. The assay is described as follows: Hydrolase activity assay, hMAGL-HEK lysates. In kind it is biochemical.
Assay [6] has as its target T3, hABHD12. The assay is described as follows: Hydrolase activity assay, hABHD12-HEK lysates. In kind it is biochemical.
Assay [7] deals with T4, hFAAH (Homo sapiens, UniProt O00519).
T4 construct: expressed in transfected cells; host or cells: COS-7
T4 sequence (O00519 1-579): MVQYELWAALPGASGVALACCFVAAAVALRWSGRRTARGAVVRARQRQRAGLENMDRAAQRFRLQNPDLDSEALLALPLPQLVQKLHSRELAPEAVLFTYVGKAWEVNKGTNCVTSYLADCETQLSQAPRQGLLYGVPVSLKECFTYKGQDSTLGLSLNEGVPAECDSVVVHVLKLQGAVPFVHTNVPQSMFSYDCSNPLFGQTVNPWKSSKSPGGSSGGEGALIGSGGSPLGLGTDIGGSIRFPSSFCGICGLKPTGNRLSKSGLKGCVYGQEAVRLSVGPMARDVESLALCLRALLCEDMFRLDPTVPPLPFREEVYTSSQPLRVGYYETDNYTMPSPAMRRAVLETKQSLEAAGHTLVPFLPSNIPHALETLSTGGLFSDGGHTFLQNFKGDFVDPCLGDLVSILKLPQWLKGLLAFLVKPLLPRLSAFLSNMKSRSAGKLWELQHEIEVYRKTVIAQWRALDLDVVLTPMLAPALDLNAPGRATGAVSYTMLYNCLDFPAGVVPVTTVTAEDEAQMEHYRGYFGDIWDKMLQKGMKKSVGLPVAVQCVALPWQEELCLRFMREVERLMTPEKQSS
The assay is described as follows: FAAH activity assay, hFAAH-COS7 membranes (3H-anandamide). In kind it is biochemical.

Assay [8] addresses T5, hBAT5 (Homo sapiens, UniProt O95870).
T5 sequence (O95870 1-558): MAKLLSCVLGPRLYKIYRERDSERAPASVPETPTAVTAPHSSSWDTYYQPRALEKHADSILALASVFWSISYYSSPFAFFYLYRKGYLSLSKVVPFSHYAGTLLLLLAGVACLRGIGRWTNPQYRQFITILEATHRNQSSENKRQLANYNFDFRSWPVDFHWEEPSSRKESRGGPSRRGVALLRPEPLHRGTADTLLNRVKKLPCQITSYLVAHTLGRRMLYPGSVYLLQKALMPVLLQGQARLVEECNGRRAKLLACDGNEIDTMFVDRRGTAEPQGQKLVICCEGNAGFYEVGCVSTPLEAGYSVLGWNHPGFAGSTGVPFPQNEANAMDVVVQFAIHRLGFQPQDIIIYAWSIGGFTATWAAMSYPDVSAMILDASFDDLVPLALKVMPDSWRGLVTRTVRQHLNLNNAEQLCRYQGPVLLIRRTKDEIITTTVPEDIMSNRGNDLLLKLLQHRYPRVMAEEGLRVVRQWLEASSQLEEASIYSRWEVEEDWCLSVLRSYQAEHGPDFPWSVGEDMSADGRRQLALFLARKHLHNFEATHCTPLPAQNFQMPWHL
The assay is described as follows: Inhibition of 1-LG hydrolysis in hBAT5-HEK293 lysates (fluorescent glycerol assay). Set-up: host or cells: HEK293. Format: biochemical.

The target of assay [9] is T6, mBAT5 (Mus musculus, UniProt Q9Z1Q2).
T6 sequence (Q9Z1Q2 1-558): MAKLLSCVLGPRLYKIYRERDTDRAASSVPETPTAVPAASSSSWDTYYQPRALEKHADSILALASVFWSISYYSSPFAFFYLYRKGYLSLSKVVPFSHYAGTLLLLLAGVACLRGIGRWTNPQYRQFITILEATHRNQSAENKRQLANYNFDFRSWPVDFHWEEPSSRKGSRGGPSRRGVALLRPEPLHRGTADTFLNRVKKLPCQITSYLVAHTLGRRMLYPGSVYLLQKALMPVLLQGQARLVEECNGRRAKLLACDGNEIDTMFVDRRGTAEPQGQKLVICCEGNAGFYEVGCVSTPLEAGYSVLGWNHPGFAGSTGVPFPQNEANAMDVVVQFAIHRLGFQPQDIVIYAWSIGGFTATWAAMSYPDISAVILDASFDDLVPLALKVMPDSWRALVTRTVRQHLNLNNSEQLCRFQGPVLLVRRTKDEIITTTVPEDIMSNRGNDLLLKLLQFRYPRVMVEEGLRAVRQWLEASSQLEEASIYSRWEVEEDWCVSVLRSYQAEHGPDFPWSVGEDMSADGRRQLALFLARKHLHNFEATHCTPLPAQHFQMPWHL
The assay is described as follows: Competitive ABPP (TAMRA-FP) with mBAT5-HEK293 lysates. The note with it: 1 h pretreatment.
Protocol: Inhibitor dose–response curves and IC50 values derived thereof were calculated from non-linear regressions using GraphPad Prism 5.0 for Windows. The logIC50 values are means ± SEM from three independent experiments. […] The data are derived from three separate ABPP experiments.

Setting [10] is: at 10^−5 M, read-out: Remaining activity.

With `CCCCC/C=C\C/C=C\C/C=C\C/C=C\CCCC(=O)OC(CO)CO` [2-AG, 2-arachidonoylglycerol], the Michaelis-Menten constant (Km) in assay [1], in [2] and in assay [3] was 110 to 160 µM throughout.

On to `CC(=C\C(=O)O)/C=C(\C)C[C@H](C)CCCC[C@H]1OC(=O)[C@@H]1CO` [Hymeglusin, hymeglusin], for which, in [4], the IC50 was ~3.2 µM and 3.2 µM. The “sensitivity of hMAGL (in words)” value in assay [5] is “resistant”. The remaining activity at 10 µM worked out at 106% in assay [5] (setting [10]); 103% in assay [6] (setting [10]); 79.2% in assay [7] (setting [10]); 102.6 ± 1% in assay [8] (at 10^-5 M, 1-LG 25 µM). The “sensitivity of hABHD12 (in words)” value in assay [6] is on record as “resistant”. Also, in [7], the “sensitivity of hFAAH (in words)” value is “resistant”. Also, in assay [8] (1-LG hydrolysis), the “hBAT5 inhibitory activity (in words)” value is “inactive”. In addition, the “inhibition of probe binding to mBAT5 (in words)” value in assay [9] is “inactive”.

Usually Km stands for the concentration of substrate that gives half-maximal velocity. Broadly, the IC50 is the midpoint of a concentration-inhibition curve. What is called remaining activity is the signal under treatment as a percentage of the control signal.
